The values that follow are results of earlier work, collected in patent publication US20260325541A1, “BENZGALANTAMINE FOR TREATING PERSISTENT POST-CONCUSSION SYMPTOMS” (Alpha Cognition Inc., priority 2023, published 2026).

The conditions of series [1]: nausea, vomiting and diarrhea; Cochrane review 2006; cited from earlier work.
For series [2], the system named is microglial phagocytic activity. The conditions noted are these: cited from earlier work.
For series [3], the system named is patients with chronic TBI. The following applies: oral, cited from earlier work.
For series [4], the system named is pre-clinical models. The conditions noted are these: cited from earlier work.

With `COc1ccc2c3c1O[C@H]1C[C@@H](O)C=C[C@@]31CCN(C)C2` [galantamine], the “gastro-intestinal (GI) side effects” value in series [1] is listed as “clinically significant level of mechanism-based gastro-intestinal (GI) side effects”. Also, in series [2], the microglial phagocytic activity result is on record as “activation of microglial phagocytic activity”. The adverse effects entry in series [3] (chronic TBI patients) is reported as “about half of all patients experienced disturbing adverse effects”. The TBI-related symptoms entry in series [3] (patient reported, not placebo controlled) is “subjective improvement of TBI-related symptoms”. In series [4] (active metabolite of benzgalantamine), the pre-clinical effects entry was “increase cholinergic activation, reduce neuroinflammation, improve blood-brain barrier function, activate cell survival signalling pathways as well as increase neurogenesis”. In addition, the “glutamate and beta-amyloid toxicity” value in series [4] was “decrease both glutamate and beta-amyloid toxicity”.
